In test [1] the test system is A375 (melanoma). Kind of test: In vitro cytotoxic activity (MTT) assay, A375. The format is cell-based. The following applies: Homo sapiens, A-375, cells exposed for 96 hours, read-out: IC50, 50% inhibition of cell proliferation. The procedure: (§1) Compounds 1-12 were screened for their in vitro cytotoxic activity utilizing a 3-(4,5-dimethyl-thiazol-2-yl)-2,5-diphenyltetrazolium bromide (MTT) assay against selected cancer human cell lines consisting of PC3 (prostate), HCT116 (colon), A375 (melanoma), H1299 (lung), MIAPaCa-2 (pancreas), HL60 (leukemia), MCF7 (breast), MDA-MB-231 (breast) (T. Mosmann, J. Immunol. Meth., 1983, 65, 55-63). The cells were cultured at 37° C. in RMPI1640 medium supplemented with 10% fetal bovine serum, 50 IU/mL penicillin, and 50 μg/mL streptomycin in a 5% CO2 incubator. All cells were sub-cultured 3 times/week by trypsinisation. Viable cells were seeded and allowed to adhere for 12 h before a test drug was added in 96-well plates at an initial density of 1.0×10^5 cells/mL. Tumour cell lines were separately exposed to various concentrations of the tested compounds followed by incubation at a temperature of 37° C. during 96 h inside a medium of fresh RMPI 1640. Cells were subsequently incubated at 37° C. using MTT at 0.5 mg/mL during 4 h. After removal of supernatant, formazan crystals were dissolved in isopropanol and the optical density was measured at 570 nm. CX-4945 was used as a positive control.

For test [2], the system named is HL60 (leukemia). Description: In vitro cytotoxic activity (MTT) assay, HL60. The format is cell-based. As to conditions: Homo sapiens, HL-60, cells exposed for 96 hours, read-out: IC50, 50% inhibition of cell proliferation. The procedure:
as §1

Test [3] has as its system PC3 (prostate). Description: In vitro cytotoxic activity (MTT) assay, PC3. As to conditions: Homo sapiens, Prostate cell, cells exposed for 96 hours, read-out: IC50, 50% inhibition of cell proliferation. In kind it is cell-based. The procedure:
as §1

Test [4] deals with MCF7 (breast). Description: In vitro cytotoxic activity (MTT) assay, MCF7. The format is cell-based. The following applies: Homo sapiens, cells exposed for 96 hours, read-out: IC50, 50% inhibition of cell proliferation. The procedure:
as §1

The test system of test [5] is MIAPaCa-2 (pancreas). Description: In vitro cytotoxic activity (MTT) assay, MIAPaCa-2. In kind it is cell-based. As to conditions: Homo sapiens, MIA PaCa-2, cells exposed for 96 hours, read-out: IC50, 50% inhibition of cell proliferation. The procedure: as §1
Test [6] deals with H1299 (lung). Description: In vitro cytotoxic activity (MTT) assay, H1299. In kind it is cell-based. The following applies: Homo sapiens, NCI-H1299, cells exposed for 96 hours, read-out: IC50, 50% inhibition of cell proliferation. The procedure:
as §1

The test system of test [7] is HCT116 (colon). Kind of test: In vitro cytotoxic activity (MTT) assay, HCT116. The format is cell-based. The following applies: Homo sapiens, HCT-116, cells exposed for 96 hours, read-out: IC50, 50% inhibition of cell proliferation. As to the method: as §1
For test [8], the system named is MDA-MB-231 (breast). Description: In vitro cytotoxic activity (MTT) assay, MDA-MB-231. The format is cell-based. As to conditions: Homo sapiens, cells exposed for 96 hours, read-out: IC50, 50% inhibition of cell proliferation. As to the method: as §1
The target in test [9] is T1, recombinant human CK2 (Homo sapiens, UniProt P68400).
T1 construct: purchased Millipore
Description: CK2 Kinase Assay (33P-ATP, filter plate). The following applies: final ATP concentration 15 μM, 10 min at 30° C.; read-out: protein kinase CK2 IC50. In kind it is biochemical. The procedure:
CK2 Kinase Assay was conducted using the protocol as described in Pierre F. et al; J. Med. Chem. 2011, 54, 635-654. The tested compounds in aqueous solution were added at a volume of 10 μL to a reaction mixture comprising 10 μL of assay dilution buffer (ADB; 20 mM MOPS, pH 7.2, 25 mM β-glycerol phosphate, 5 mM EGTA, 1 mM sodium orthovanadate, and 1 mM dithiothreitol), 10 μL of substrate peptide (RRRDDDSDDD, dissolved in ADB at a concentration of 1 mM), 10 μL of recombinant human CK2 (RRfββ-holoenzyme, 25 ng dissolved in ADB; Millipore). Reactions were initiated by the addition of 10 μL of ATP solution (90% 75 mMMgCl2, 75 μM ATP (final ATP concentration:15 μM) dissolved in ADB; 10% [γ-33P] ATP (stock 1mCi/100 μL; 3000 Ci/mmol (Perkin-Elmer) and maintained for 10 min at 30° C. The reactions were quenched with 100 μL of 0.75% phosphoric acid and then transferred to and filtered through a phosphor cellulose filter plate (Millipore). After washing each well five times with 0.75% phosphoric acid, the plate was dried under vacuum for 5 min and, following the addition of 15 μL of scintillation fluid to each well, the residual radioactivity was measured using a Wallac […]. The IC50 values were derived from eight concentrations of test inhibitors.

T1 sequence (P68400 whole entry): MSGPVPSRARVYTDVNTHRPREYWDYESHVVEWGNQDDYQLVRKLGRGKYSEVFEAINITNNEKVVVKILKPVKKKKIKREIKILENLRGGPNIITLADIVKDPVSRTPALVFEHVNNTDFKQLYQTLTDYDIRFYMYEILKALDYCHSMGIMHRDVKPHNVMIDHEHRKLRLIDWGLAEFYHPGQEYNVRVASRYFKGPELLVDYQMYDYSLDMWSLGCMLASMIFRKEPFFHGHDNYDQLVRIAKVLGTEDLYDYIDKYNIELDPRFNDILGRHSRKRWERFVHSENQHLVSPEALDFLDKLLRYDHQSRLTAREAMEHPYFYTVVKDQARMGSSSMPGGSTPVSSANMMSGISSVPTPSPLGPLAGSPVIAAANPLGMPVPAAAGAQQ
T1 sequence (P67870 whole entry partner): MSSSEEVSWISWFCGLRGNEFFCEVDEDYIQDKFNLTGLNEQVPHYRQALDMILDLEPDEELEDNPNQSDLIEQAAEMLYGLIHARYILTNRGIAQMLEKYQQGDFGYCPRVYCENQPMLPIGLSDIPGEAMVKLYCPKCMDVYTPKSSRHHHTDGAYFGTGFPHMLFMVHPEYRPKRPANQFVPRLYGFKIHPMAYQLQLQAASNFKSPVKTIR

Consider `O=C(O)c1ccc2c(c1)cc1c(Nc3ccc(Cl)cc3)nc3ccncc3n12` [Compound 1, 6-((4-chlorophenyl)amino)pyrido[4′,3′:5,6]pyrazino[1,2-a]indole-9-carboxylic acid], for which the IC50 in test [1] was determined as 2.5 µM; in [2], 2.8 µM; in [3], 1.6 µM; in test [4], 7.8 µM; in test [5] it was 0.9 µM; in [6] it was 3.1 µM. Further, the results for the IC50 in test [7], in test [8] and in test [9] were 1.9 µM, 6.1 µM and 0.012 µM, respectively.

(Values after US11845749B1, “Substituted pyrido[4′,3′:5,6]pyrazino[1,2-a]indoles as anticancer agents” (KING FAISAL UNIVERSITY, priority 2023, dated 2023).)
